Source: publication PMC11851430, “Workflow for E3 Ligase Ligand Validation for PROTAC Development” (ACS Chemical Biology, 2025)

How the values were obtained:
AURKA = target: T1, AURKA (Homo sapiens, UniProt O14965); assay: NanoBRET target engagement assay, intact and permeabilized cells; conditions: mean of duplicates, ^a values estimated by extrapolation
T1 sequence (O14965 1-403): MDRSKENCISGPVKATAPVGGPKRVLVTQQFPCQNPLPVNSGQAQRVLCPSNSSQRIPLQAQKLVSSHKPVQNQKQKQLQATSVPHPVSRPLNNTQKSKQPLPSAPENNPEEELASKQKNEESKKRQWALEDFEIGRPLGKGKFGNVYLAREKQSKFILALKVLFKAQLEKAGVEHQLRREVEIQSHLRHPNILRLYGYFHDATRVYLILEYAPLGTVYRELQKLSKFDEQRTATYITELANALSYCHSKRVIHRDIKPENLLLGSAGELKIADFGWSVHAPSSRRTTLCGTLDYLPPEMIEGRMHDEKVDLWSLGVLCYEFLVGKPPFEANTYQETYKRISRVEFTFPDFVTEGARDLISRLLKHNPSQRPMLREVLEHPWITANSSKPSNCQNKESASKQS
Experimental: Compounds were pipetted at various concentrations using an Echo acoustic dispenser (Labcyte), immediately followed by Tracer K10 (Promega, Tracer DB ID: T000008) for AAK1 and Aurora A and VHL Tracer (Promega, Tracer DB ID: T000019) for VHL, at an optimum KD concentration chosen from TracerDB ( tracerdb.org), respectively.
To measure the BRET signal, the NanoBRET® NanoGlo Substrate (Promega:
N1573) was added as per the manufacturer’s protocol, and filtered luminescence was measured on a PHERAstar plate reader (BMG Labtech) equipped with a luminescence filter pair (450 nm BP filter (donor) and 610 nm LP filter (acceptor)). For NanoBRET® measurement in permeabilized cells, 25 nL of digitonin (0.05 μg/μL) was pipetted into each well using an
After incubation, the BRET signals were measured by a PHERAstar plate reader (BMG Labtech) following the same procedure as intact NanoBRET® measurement. Competitive displacement data were then normalized to controls and were plotted using GraphPad Prism 9 software employing a normalized 3-parameter curve fit with the following equation:

VHL = VHL (Homo sapiens, UniProt P40337); assay: cell-based; set-up: full-length, NanoLuc fusion (Promega N2741); species or system HEK293T; NanoBRET VHL tracer displacement in permeabilized cells, NanoLuc-VHL fusion; conditions: permeabilized cells; read-out: VHL permeabilized (IC50±sd)/µM
Sequence of VHL (P40337 whole entry, the tested form may be a part): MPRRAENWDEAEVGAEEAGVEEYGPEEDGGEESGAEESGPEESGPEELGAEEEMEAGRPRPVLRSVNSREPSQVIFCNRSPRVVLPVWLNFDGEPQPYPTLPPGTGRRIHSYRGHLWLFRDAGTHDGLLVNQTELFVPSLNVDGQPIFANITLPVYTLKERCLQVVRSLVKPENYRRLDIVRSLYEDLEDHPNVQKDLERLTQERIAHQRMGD

[1] = test system: kinase protein levels in Jurkat cells; assay: TMT-labeled quantitative proteomics; type: cell-based, human; conditions: for kinase degradation / AURKA degradation in proteomic experiments: Jurkat cells, 1 μM, 6 h; for AURKA degradation in proteomic experiments: cutoff log2(fold change) ≥ 0.60; for log2FC (compound/DMSO): Jurkat
Experimental: cultured in RPMI (Thermo: 11875093) supplemented as mentioned above. Cells were seeded in 6 well plates (Greiner: 657160) at a cell density of 1·10 6 cells/well and left at 37 °C and 5% […]
50 µl of SDS Lysis Buffer (2% SDS, 50 mM TRIS pH 8.5, 10 mM TCEP, 40 mM CAA) was added to each sample. Cells were transferred into low binding reaction tubes (Eppendorf:
0030108116) and samples were boiled for 15 minutes at 95 °C and sonicated for 2 minutes.
Methanol/Chloroform Precipitation. 200 µl of methanol and 50 µl of chloroform were added to each sample reaction tube and mixed via vortex. 150 µl of milliQ-H2O were added and samples were vortexed further. Samples were centrifuged for 5 minutes at 15000 g and the aqueous layer above the interphase was removed. 150 µl of methanol was added, samples were vortexed and centrifuged for 10 minutes at 15000 g to precipitate the pellet. The aforementioned wash procedure was repeated twice before transferring the pellet to a new low bind reaction tube in which it was allowed to dry for 5 minutes.
Dissolving the Protein Pellet and Protein Quantification. 50 µl of digestion buffer (8 M Urea, 50 mM TRIS pH 8) was added to each sample before vortexing and shaking at 750 rpm at room temperature for 10 minutes to solubilize the pellet. Protein quantification via PierceTM BCA Protein Assay Kit (Thermo: 23225) was carried out according to manufacturer’s protocol.
Protein Digestion. Samples were diluted 1:2 with 50 mM TRIS pH 8.5 to reach a final concentration of 4 M Urea. Lys-C (Promega: VA1170) was added at a 1:100 enzyme/substrate ratio. Samples were agitated at 550 rpm and 37 °C for 3 h. Samples were further diluted with 50 mM TRIS pH 8.5 to a final concentration of 1 M Urea and Trypsin (Promega: V5280) was added at a 1:100 enzyme/substrate ratio. Samples were agitated overnight at 550 rpm and 37 °C. The digestion was stopped the following day via addition of TFA to a final concentration […]
Solid Phase Extraction via C18 Cartridges. Sep-Pak C18 Cartridges (Waters: WAT054955) were used for solid phase extraction of digested peptides. For preconditioning of C18 cartridges, 1 mL of methanol was added to each column followed by 1 mL of solution B (0.1% formic acid, 80% acetonitrile) and 1 mL of solution A (0.1% formic acid, ddH2O) twice. Samples […]
were loaded to their respective columns and once samples had passed, columns were washed twice with solution A to remove unwanted components from the loading step. Elution of samples was carried out via introduction of 40% and 60% acetonitrile steps. Samples were dried and snap frozen in liquid nitrogen.
TMT-Labeling. Desalted peptides were dried and resuspended in TMT-labeling buffer (200 mM EPPS pH 8.2, 20% acetonitrile). 10 μg of peptides per condition were subjected to TMT labeling with 1:2.5 peptide TMT ratio (w/w) for 1 h at room temperature. The labeling reaction was quenched by addition of hydroxylamine to a final concentration of 0.5% and incubation at room temperature for 15 minutes. Successful TMT labeling was verified by mixing equimolar ratios of peptides and subjecting the mix to single shot LC-MS/MS analysis. For high pH reversed phase fractionation on a Dionex analytical HPLC, 50 µg of pooled and purified TMT labelled samples were resuspended in 10 mM ammonium-bicarbonate (ABC), 5% acetonitrile, […]
particle size; Phenomenex) using a multistep gradient from 100% solvent A (5% acetonitrile, 10 mM ABC in water) to 60% solvent B (90% acetonitrile, 10 mM ABC in water) over 70 minutes. Eluting peptides were collected every 45 seconds into a total of 96 fractions, which were cross-concatenated into 24 fractions and dried in a vacuum concentrator and resuspended in 3% acetonitrile with 0.1% TFA for LC-MS analysis.
Mass spectrometry data acquisition. Tryptic peptides were analyzed on an Orbitrap Lumos coupled to an easy nLC 1200 (ThermoFisher Scientific) using a 35 cm long, 75 µm ID fused-

[2] = AURKA intact (IC50±sd)/μM, intact cells
[3] = AURKA permeabilized (IC50±sd)/μM, permeabilized cells
[4] = protein TRBV12-3;TRBV12-4, 1 µM, set1.2
[5] = protein UQCRHL;UQCRH, 1µM, set6
[6] = protein hCG_2014768;TMA7, 1µM, set6

IC50 (AURKA; [2]) [µM]	IC50 (AURKA; [3]) [µM]	IC50 (VHL) [µM]	AURKA intact (IC50±sd)/μM (AURKA; intact cells)	Compound	kinase degradation [1]	AURKA degradation in proteomic experiments [1]	log2FC (compound/DMSO) ([1]; protein NUDT4, 1 µM, set1.2)	log2FC (compound/DMSO) ([1]; protein PIGBOS1, 1 µM, set1.2)	log2FC (compound/DMSO) ([1]; protein TRAV8-2, 1 µM, set1.2)	log2FC (compound/DMSO) [1, 4]	log2FC (compound/DMSO) ([1]; protein NUDT4, 1µM, set6)	log2FC (compound/DMSO) ([1]; protein TRAV8-2, 1µM, set6)	log2FC (compound/DMSO) [1, 5]	log2FC (compound/DMSO) [1, 6]
0.577 ± 0.391	0.507 ± 0.079			CCOC(=O)c1cc(Nc2cc(C3CC3)[nH]n2)nc(Nc2ccc(CC#N)cc2)n1 [compound 5]										
1.92 ± 0.07	0.63 ± 0.021			CC(C)(C)OC(=O)NCCOCCOCCOCCOCCC(=O)N1CCN(c2cc(Nc3cc(C4CC4)[nH]n3)nc(Nc3ccc(CC#N)cc3)n2)CC1 [4-L]										
0.416 ± 0.031	0.254 ± 0.08	1.41 ± 0.083		Cc1ncsc1-c1ccc(CNC(=O)[C@@H]2C[C@@H](O)CN2C(=O)[C@@H](NC(=O)CCOCCOCCOCCOCCN2CCN(c3ccc(Nc4ncc(Cl)c(Nc5ccccc5C(N)=O)n4)cc3)CC2)C(C)(C)C)cc1 [6-b]	more kinases were degraded	degradation levels close to the set cutoff	0.1389	-0.2513	-0.01025	0.04941				
				Cc1ncsc1-c1ccc(CNC(=O)[C@@H]2C[C@H](O)CN2C(=O)[C@@H](NC(=O)CCOCCOCCOCCN2CCN(c3cc(Nc4cc(C5CC5)[nH]n4)nc(Nc4ccc(CC#N)cc4)n3)CC2)C(C)(C)C)cc1 [4-a^neg]	inactive						0.1377	-0.04256	0.1443	-0.0883
3.68 ± 0.085	1.34 ± 0.271	1.13 ± 0.132		Cc1ncsc1-c1ccc(CNC(=O)[C@@H]2C[C@@H](O)CN2C(=O)[C@@H](NC(=O)CCOCCOCCOCCN2CCN(c3cc(Nc4cc(C5CC5)[nH]n4)nc(Nc4ccc(CC#N)cc4)n3)CC2)C(C)(C)C)cc1 [4-a]	more kinases were degraded	degradation levels close to the set cutoff	-0.1286	-0.1403	0.1127	0.03022				
				Cc1ncsc1-c1ccc(CNC(=O)[C@@H]2C[C@H](O)CN2C(=O)[C@@H](NC(=O)CCOCCOCCOCCOCCN2CCN(c3ccc(Nc4ncc(Cl)c(Nc5ccccc5C(N)=O)n4)cc3)CC2)C(C)(C)C)cc1 [6-b^neg]	inactive						-0.02087	0.09325	0.1465	-0.2041
~2.2	0.861 ± 0.251	1.4 ± 0.174		CC(=O)N[C@H](C(=O)N1C[C@H](O)C[C@H]1C(=O)NCc1ccc(-c2scnc2C)cc1OCCOCCOCCOCCOCCC(=O)N1CCN(c2ccc(Nc3ncc(Cl)c(Nc4ccccc4C(N)=O)n3)cc2)CC1)C(C)(C)C [6-e]										
~19.7	~7.05			CC(C)(C)OC(=O)NCCCOCCOCCOCCCNC(=O)c1cc(Nc2cc(C3CC3)[nH]n2)nc(Nc2ccc(CC#N)cc2)n1 [5-L]										
~18.5	~7.78	0.972 ± 0.094		CC(=O)N[C@H](C(=O)N1C[C@H](O)C[C@H]1C(=O)NCc1ccc(-c2scnc2C)cc1OCCOCCOCCOCCNC(=O)c1cc(Nc2cc(C3CC3)[nH]n2)nc(Nc2ccc(CC#N)cc2)n1)C(C)(C)C [5-b]										
	~16.9	1.22 ± 0.665	outside the assay window	Cc1ncsc1-c1ccc(CNC(=O)[C@@H]2C[C@@H](O)CN2C(=O)[C@@H](NC(=O)CCOCCOCCNC(=O)c2cc(Nc3cc(C4CC4)[nH]n3)nc(Nc3ccc(CC#N)cc3)n2)C(C)(C)C)cc1 [5-a]			-0.04256	-0.1976	0.04739	0.03953				
0.372 ± 0.014	0.249 ± 0.011	5.83 ± 1.43		Cc1ncsc1-c1ccc(CNC(=O)[C@@H]2C[C@@H](O)CN2C(=O)[C@@H](NC(=O)CCCCCCN2CCN(c3ccc(Nc4ncc(Cl)c(Nc5ccccc5C(N)=O)n4)cc3)CC2)C(C)(C)C)cc1 [6-d]							0.05822	-0.03607	-0.2976	-0.5377
